A short description of data set [1]: Stability: oxidized glutathione and reduced ascorbic acid after storage. In kind it is physicochemical. To be noted: ascorbic acid only, pH not given; Ambient; stored at 5° C. for 4 weeks. On the procedure: The amount of glutathione and ascorbic acid oxidiation were determined for Composition 1 at pH 5.5, 6.0, and 6.5. Oxidized glutathione is associated with the generation of protein-carbonyls via glutathionlyation, which occurs when oxidized glutathione dissociates and attaches to proteins. The % oxidized glutathione (% GSSG) was determined after 4 weeks of storage of Composition 1 at pH 5.5, 6.0, and 6.5 under N2-sparged and ambient conditions. Additionally, when ascorbic acid is oxidized into dehydroascorbate (DHA), DHA can break down and result in the formation of protein adducts in process called ascorbylation (Simpson et al., Biochim biophys Acta 2000; 1501:12-24). The % reduced ascorbic acid maintained in Composition 1 (% ASC) was determined after 4 weeks of storage of Composition 1 at pH 5.5, 6.0, and 6.5 under N2-sparged (anaerobic) and ambient conditions. Specifically, nitrogen-sparged samples were mixed under anaerobic conditions sparged with nitrogen, and the samples were packaged using nitrogen bubbling. Ambient samples were mixed under room air conditions and were not bubbled with nitrogen. The formulations were stored at 5° C. for 4 weeks, and the percent of oxidized glutathione (GSSG) and ascorbic acid (ASC) was measured for each sample according to standard techniques.

Data set [2] has as its system Pseudomonas aeruginosa (Schroeter) Migula (ATCC BAA-47 (PAO1)). Kind of data set: MIC against Pa BAA-47 (PAO1). In kind it is cell-based. Conditions: Anaerobic (+nitrate), 12 hrs. How it is done: (§1) The MICs of Composition 1 (glutathione, ascorbic acid, and HCO3); glutathione and ascorbic acid; and HCO3 were tested against clinical isolates, including Burkholderia cepacia, Pseudomonas aeruginosa (Schroeter) Migula (ATCC 27853), Pseudomonas aeruginosa (Schroeter) Migula (ATCC 9027), Pseudomonas aeruginosa (Schroeter) Migula (ATCC BAA-2114), Klebsiella pneumonia, methicillin resistant Staphylococcus aureus; laboratory strains of Moraxella catarrhalis, Stenotrophomonas maltophilia, Acinetobacter baumannii; and eight samples of mucoid and nonmucoid Pseudomonas aeruginosa clinical isolates from human lung. The MIC for laboratory clinical isolate Pseudomonas aeruginosa (Schroeter) Migula (ATCC BAA-47 (PAO1)) was also tested. The MICs were determined under anaerobic conditions on media supplemented with nitrate, under aerobic conditions supplemented with nitrate, or under ambient conditions.
(§2) The clinical isolates were inoculated in duplicate on agar plates overnight under anaerobic conditions at 36° C.±1.0° C. in a 96-well plate. Laboratory isolates of Burkholderia cepacia were also grown in duplicate overnight under aerobic conditions at 36° C.±1.0° C. in a 96-well plate. […] MICs were determined via visual inspection and OD620.

Data set [3] relates to Pa UAB-NM-1 (nonmucoidy P. aeruginosa clinical isolate from lung). Kind of data set: MIC against Pa UAB-NM-1. The class given is cell-based, Pseudomonas aeruginosa. Conditions: Anaerobic (+nitrate), 12 hrs. On the procedure:
as §1, §2

In data set [4] the test system is Pa UAB-M-2 (mucoidy P. aeruginosa clinical isolate from lung). Kind of data set: MIC against Pa UAB-M-2. In kind it is cell-based, Pseudomonas aeruginosa. Conditions: Anaerobic (+nitrate), 12 hrs. On the procedure: as §1, §2
Data set [5] has as its system Pa UAB-NM-3 (nonmucoidy P. aeruginosa clinical isolate from lung). Kind of data set: MIC against Pa UAB-NM-3. In kind it is cell-based, Pseudomonas aeruginosa. Conditions: Anaerobic (+nitrate), 12 hrs. On the procedure:
as §1, §2

In data set [6] the test system is Pa UAB-NM-5 (nonmucoidy P. aeruginosa clinical isolate from lung). Kind of data set: MIC against Pa UAB-NM-5. In kind it is cell-based, Pseudomonas aeruginosa. Conditions: Anaerobic (+nitrate), 12 hrs. How it is done: as §1, §2
The next data set deals with MRSA UAB-1. Kind of data set: MIC against MRSA UAB-1. The class given is cell-based, Staphylococcus aureus. To be noted: Anaerobic (+nitrate), 12 hrs. How it is done:
as §1, §2

Another data set relates to MRSA UAB-3. Kind of data set: MIC against MRSA UAB-3. The class given is cell-based, Staphylococcus aureus. To be noted: Anaerobic (+nitrate), 12 hrs. How it is done:
as §1, §2

On to `O=C1O[C@H]([C@@H](O)CO)C(O)=C1O` [Ascorbic Acid Only, ascorbic acid], for which, in data set [1], the “% ASC (reduced ascorbic acid maintained)” value amounted to 77.88%.

As to `O=C([O-])O.[Na+]` [HCO3, sodium bicarbonate], the MIC was 12.5% (12 in data set [2]; 12.5%(12 in data set [3]; 12.5%(12 in data set [4]; 12.5% (12 in data set [5]; 12.5% (12 in data set [6]; 25% (12 with MRSA UAB-1. For the same compound, the MIC against MRSA UAB-3 is recorded as 25% (12.

The values above are taken from patent US12427180B2, “Treatment of respiratory tract diseases and infections with ascorbic acid compositions” (RENOVION, INC., priority 2016, dated 2025).
